For one test, the target named is T1, HsEH (Homo sapiens, UniProt P34913).
T1 sequence (P34913 1-555): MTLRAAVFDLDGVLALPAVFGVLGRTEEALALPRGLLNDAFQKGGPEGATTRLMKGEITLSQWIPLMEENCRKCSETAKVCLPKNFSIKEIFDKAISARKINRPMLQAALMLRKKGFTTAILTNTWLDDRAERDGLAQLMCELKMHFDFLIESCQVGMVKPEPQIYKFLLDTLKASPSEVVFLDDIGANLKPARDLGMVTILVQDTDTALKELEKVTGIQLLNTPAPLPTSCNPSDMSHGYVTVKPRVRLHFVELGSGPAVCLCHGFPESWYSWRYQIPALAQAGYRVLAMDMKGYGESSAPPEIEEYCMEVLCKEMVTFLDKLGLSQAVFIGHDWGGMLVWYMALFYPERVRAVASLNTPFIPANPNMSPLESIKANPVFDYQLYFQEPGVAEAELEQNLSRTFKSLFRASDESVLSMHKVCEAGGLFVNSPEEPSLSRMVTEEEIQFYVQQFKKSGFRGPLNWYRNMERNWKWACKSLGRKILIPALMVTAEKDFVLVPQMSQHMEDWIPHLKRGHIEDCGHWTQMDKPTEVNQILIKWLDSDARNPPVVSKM
As to the kind of experiment: biochemical. The class given is biochemical. From the text:
(§1) Detection principle: a specific substrate, (3-phenyl-oxy)-acetic acid cyano-(6-methoxy-naphthalen-2-yl)methyl ester, namely PHOME, is non-fluorescent but can be hydrolyzed under the action of sEH enzyme to generate a product 6-methoxy-2-naphthaldehyde. The 6-methoxy-2-naphthaldehyde can emit fluorescence with a wavelength of 465 nm under 330 nm light wave excitation, and an intensity of the detected fluorescence signal is inversely proportional to an inhibitory effect on the sEH enzyme. Based on the above principle, the inhibition rates of samples with different concentrations were calculated compared with the positive control group. The IC50 value of the compound was calculated based on the inhibition rate and concentration using SPSS 20 software.
(§2) 25 mM Tris-HCl buffer (pH=7.4, containing 0.1 mg/mL BSA): […] BAS was added to 12.5 mL of 1 M Tris-HCl buffer, followed by diluting with purified water, and a resulting mixture was adjusted to a pH value of 7.4 with hydrochloric acid, and diluted to 500 mL.
(§3) PHOME solution: 0.79 mg PHOME was dissolved in 106 μL DMSO to obtain a 20 mM PHOME solution, which was diluted to ⅓ mM with Tris-HCl buffer before use.
(§4) sEH solution: sEH (5 mg/mL) stock solution was stored in a refrigerator at −80° C. and diluted to 4 μg/mL with 25 mM Tris-HCl buffer before use.
(§5) A sample powder to be tested was dissolved in DMSO to a 20 mM solution, stored in a refrigerator at −20° C. for later use, and diluted with Tris-HCl buffer to corresponding concentrations when used.
(§6) Experimental design: solvent group, 100% activity group (A), inhibitor group (B), positive control group (C), as shown in Table 1.
(§7) Three replicate wells were set for each sample, and the average value of the three replicate wells was the fluorescence value (F) of the compound to be tested. […] The IC50 value of the compound was calculated based on the inhibition rate and concentration using SPSS 20 software.

The target in the next test is T2, MsEH (Mus musculus, UniProt P34914).
T2 sequence (P34914 1-554): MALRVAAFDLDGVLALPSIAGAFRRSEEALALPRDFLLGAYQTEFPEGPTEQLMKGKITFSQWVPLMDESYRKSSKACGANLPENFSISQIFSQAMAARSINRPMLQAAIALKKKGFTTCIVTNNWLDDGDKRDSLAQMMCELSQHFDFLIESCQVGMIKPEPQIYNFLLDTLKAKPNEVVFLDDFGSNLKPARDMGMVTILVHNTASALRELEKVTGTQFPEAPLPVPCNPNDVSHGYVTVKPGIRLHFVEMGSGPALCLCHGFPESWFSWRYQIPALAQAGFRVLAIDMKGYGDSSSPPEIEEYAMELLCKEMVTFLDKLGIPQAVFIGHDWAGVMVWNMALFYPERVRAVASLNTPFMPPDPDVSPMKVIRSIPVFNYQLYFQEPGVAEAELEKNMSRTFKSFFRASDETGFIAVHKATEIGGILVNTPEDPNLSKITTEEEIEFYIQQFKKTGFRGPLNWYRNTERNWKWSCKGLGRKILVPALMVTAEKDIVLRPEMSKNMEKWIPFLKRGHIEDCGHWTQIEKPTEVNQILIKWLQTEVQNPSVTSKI
As to the kind of experiment: sEH inhibitory activity, PHOME fluorescence assay (MsEH). Format: biochemical.
Text: as §1, §2, §3, §4, §5, §6, §7

Where [1] appears, read: PHOME substrate 50 μM, sEH 400 ng/ml, 37° C., 10 min, fluorescence 330/465 nm, read-out: HsEH IC50 (nM) Inhibitory activity against HsEH.
Setting [2] is: PHOME substrate 50 μM, sEH 400 ng/ml, 37° C., 10 min, fluorescence 330/465 nm, read-out: MsEH IC50 (nM) Inhibitory activity against MsEH.

Where two headings read alike, the source gives them in different places.

Broadly, the IC50 is the concentration at which inhibition is half-maximal. As for `CC12CC3CC(C)(C1)CC(NC(=O)Nc1ccc(CN4CCCN(C(=O)CC5CCN(CC(O)CO)CC5)CC4)cc1F)(C3)C2` [GL-22, 1-(4-((4-(2-(1-(2,3-dihydroxypropyl)piperidin-4-yl)acetyl)-1,4-diaza-1-yl)methyl)-2-fluorophenyl)-3-((1r,3R,5S,7r)-3,5-dimethyladamantan-1-yl) urea], the IC50 on HsEH (setting [1]) worked out at 58.1 nM; against MsEH it was 1.25 nM.
For `CN(C)CCN1CCC(CC(=O)N2CCCN(Cc3ccc(NC(=O)NC45CC6CC(C)(CC(C)(C6)C4)C5)c(F)c3)CC2)CC1` [GL-23, 1-((1r,3R,5S,7r)-3,5-dimethyladamantan-1-yl)-3-(4-((4-(2-(1-(2-(dimethylamino)ethyl)piperidin-4-yl)acetyl)-1,4-diaza-1-yl)methyl)-2-fluorophenyl) urea], in that order: 2.59 nM and 0.67 nM.
In the case of `CCN(CC)CCN1CCC(CC(=O)N2CCCN(Cc3ccc(NC(=O)NC45CC6CC(C)(CC(C)(C6)C4)C5)c(F)c3)CC2)CC1` [GL-24, 1-(4-((4-(2-(1-(2-(diethylamino)ethyl)piperidin-4-yl)acetyl)-1,4-diaza-1-yl)methyl)-2-fluorophenyl)-3-((1r,3R,5S,7r)-3,5-dimethyladamantan-1-yl) urea], the values for the IC50 at HsEH (setting [1]) and at MsEH were 2.1 nM and 1.37 nM, respectively.
On to `CC(=O)N1CCCN(C(=O)[C@H]2CCCN(C(=O)c3ccc(NC(=O)NC45CC6CC(C)(CC(C)(C6)C4)C5)c(F)c3)C2)CC1` [GL-101, 1-(4-((S)-3-(4-acetyl-1,4-diaza-1-carbonyl)piperidine-1-carbonyl)-2-fluorophenyl)-3-((1r,3R,5S,7S)-3,5-dimethyladamantan-1-yl) urea], for which the IC50 at HsEH was 0.6 nM; on MsEH, 0.26 nM.
For the compound `CCC(=O)N1CCCN(C(=O)[C@H]2CCCN(C(=O)c3ccc(NC(=O)NC45CC6CC(C)(CC(C)(C6)C4)C5)c(F)c3)C2)CC1` [GL-102, 1-((1r,3R,5S,7S)-3,5-dimethyladamantan-1-yl)-3-(2-fluoro-4-((S)-3-(4-propionyl-1,4-diaza-1-carbonyl)piperidine-1-carbonyl)phenyl) urea], the IC50 came out at 0.56 nM on HsEH (setting [1]) and 0.58 nM against MsEH.
On to `CCC(C)C(=O)N1CCCN(C(=O)[C@H]2CCCN(C(=O)c3ccc(NC(=O)NC45CC6CC(C)(CC(C)(C6)C4)C5)c(F)c3)C2)CC1` (stereo partly drawn) [GL-104, 1-((1r,3R,5S,7S)-3,5-dimethyladamantan-1-yl)-3-(2-fluoro-4-((3S)-3-(4-(2-methylbutanoyl)-1,4-diaza-1-carbonyl)piperidine-1-carbonyl)phenyl) urea], for which the IC50 at HsEH (setting [1]) is 1.4 nM; on MsEH, 0.9 nM.
For `CC12CC3CC(C)(C1)CC(NC(=O)Nc1ccc(C(=O)N[C@H]4CC[C@H](C(=O)NCCO)CC4)cc1F)(C3)C2` [ZT-110, 4-(3-((1r,3R,5S,7r)-3,5-dimethyladamantan-1-yl)ureido)-3-fluoro-N-((1r,4R)-4-((2-hydroxyethyl)carbamoyl)cyclohexyl)benzamide], the IC50 is 0.8 nM against HsEH and 0.18 nM against MsEH.
Turning to `CC(O)CNC(=O)[C@H]1CC[C@H](NC(=O)c2ccc(NC(=O)NC34CC5CC(C)(CC(C)(C5)C3)C4)c(F)c2)CC1` (stereo partly drawn) [ZT-111, 4-(3-((1r,3R,5S,7r)-3,5-dimethyladamantan-1-yl)ureido)-3-fluoro-N-((1r,4R)-4-((2-hydroxypropyl)carbamoyl)cyclohexyl)benzamide], the IC50 was 1.54 nM on HsEH (setting [1]) and 0.44 nM at MsEH.
With `CC12CC3CC(C)(C1)CC(NC(=O)Nc1ccc(C(=O)N[C@H]4CC[C@H](C(=O)N(CCO)CCO)CC4)cc1F)(C3)C2` [ZT-112, N-((1r,4R)-4-(bis(2-hydroxyethyl)carbamoyl)cyclohexyl)-4-(3-((1r,3R,5S,7r)-3,5-dimethyladamantan-1-yl)ureido)-3-fluorobenzamide], the IC50 at HsEH (setting [1]) was 2.94 nM; against MsEH, 0.23 nM.
Turning to `CC12CC3CC(C)(C1)CC(NC(=O)Nc1ccc(C(=O)N[C@H]4CC[C@H](C(N)=O)CC4)cc1F)(C3)C2` [ZT-113, N-((1r,4R)-4-carbamoylcyclohexyl)-4-(3-((1r,3R,5S,7r)-3,5-dimethyladamantan-1-yl)ureido)-3-fluorobenzamide], the IC50 was 0.84 nM at HsEH (setting [1]) and 0.35 nM against MsEH.
As for `C[C@]12CC3CC(NC(=O)Nc4ccc(C(=O)NC5CCC(C(=O)NC(CO)CO)CC5)cc4F)(C1)C[C@@](C)(C3)C2` (stereo partly drawn) [ZT-114, N-((1r,4R)-4-((1,3-dihydroxypropan-2-yl)carbamoyl)cyclohexyl)-4-(3-((1r,3R,5S,7r)-3,5-dimethyladamantan-1-yl)ureido)-3-fluorobenzamide], the results for the IC50 at HsEH (setting [1]) and on MsEH (setting [2]) were 0.91 nM and 0.55 nM, respectively.
As for `CC12CC3CC(C)(C1)CC(NC(=O)Nc1ccc(C(=O)N[C@H]4CC[C@H](C(=O)NC(CO)(CO)CO)CC4)cc1F)(C3)C2` [ZT-115, N-((1r,4R)-4-((1,3-dihydroxy-2-(hydroxymethyl)propan-2-yl)carbamoyl)cyclohexyl)-4-(3-((1r,3R,5S,7r)-3,5-dimethyladamantan-1-yl)ureido)-3-fluorobenzamide], the IC50 at HsEH (setting [1]) was found to be 0.35 nM; on MsEH, 0.12 nM.
Take `CC12CC3CC(C)(C1)CC(NC(=O)Nc1ccc(C(=O)N[C@H]4CC[C@H](C(=O)NCCN5CCN(C(=O)OC(C)(C)C)CC5)CC4)cc1F)(C3)C2` [ZT-116, tert-butyl 4-(2-((1R,4r)-4-(4-(3-((1r,3R,5S,7r)-3,5-dimethyladamantan-1-yl)ureido)-3-fluorobenzamido)cyclohexane-1-carboxamido)ethyl) piperazine-1-carboxylate]: the figures for the IC50 on HsEH (setting [1]) and on MsEH were 183 nM and 2 nM, respectively.
As to `C[C@]12CC3CC(NC(=O)Nc4ccc(C(=O)NC5CCC(C(=O)N6CCN(CCO)CC6)CC5)cc4F)(C1)C[C@@](C)(C3)C2` (stereo partly drawn) [ZT-117], the concentration for half-maximal inhibition (IC50) on HsEH (setting [1]) was found to be 16 nM; at MsEH (setting [2]) it was 0.53 nM.
For “methyl 4-(2-(4-(4-(3-((1r,3R,5S,7r)-3,5-dimethyladamantan-1-yl) ureido)-3-fluorobenzyl)-1,4-diaza-1-yl)-2-oxoethyl) piperidine-1-carboxylate [GL-4]”, in that order: 1.1 nM and 0.41 nM.

These data come from patent US20260224548A1 (priority 2022, published 2026).
